Read-outs that look alike come from different tables or passages of the source.
What was measured:
[1] = molecular target: GST-caspase 8/His-caspase 8 (Homo sapiens, UniProt Q14790); assay: AlphaScreen counter-screen GST-caspase 8/His-caspase 8; format: binding
Method: (§1) Figure 2 3-(1H-indol-1yl)propan-1-amine (1), three benzimidazole derivatives (2–4), and spinacine (5) inhibit protein–protein interactions. Five compounds at the indicated concentrations (1.4 μM–3.2 mM) were tested using our bead-based screening assay for their ability to inhibit three different protein/protein interactions: (a) GST-E6/His-caspase 8; (b) GST-E6/HisE6AP; and (c) GST-caspase 8/His-caspase 8. Binding in the presence of 1.4 μM of the test compound was set at 100%. Experiments were performed in triplicate, and error bars indicate the S.D.
To ask whether this inhibition was specific, we employed a counter-screening assay in which we assessed the ability of candidates to inhibit the binding of GST-caspase 8 to His-caspase 8; those that did were to be eliminated. In this counter-screening assay, the materials in each well were the same as in the primary screen, with the exception that GST-caspase 8 replaced GST-E6.
(§2) AlphaScreen Technology was used to assess the interactions between GST-E6, GST-caspase 8, His-E6AP, and His-caspase 8. Binding assays were performed in white 384-well plates (Perkin-Elmer) in a total volume of 25 μl as previously described.[33] Briefly, 5 μl (50 ng) of GST-E6 and 5 μl (87.5 ng) of His-caspase 8 were included in each reaction mixture with 5 μl blocking buffer (0.5 mg BSA, 0.5% Tween 20 in PBS) in the absence or presence of 10 μM of each test chemical. Members of the library were present at 10 μM in DMSO. After a 1-h incubation of the mixture at room temperature, 5 μl donor beads and 5 μl acceptor beads (Perkin-Elmer) were added to each well according to the manufacturer's protocol. The mixture was incubated in the dark at room temperature overnight, and the emitted signal was detected using the Envision Multilabel plate reader (Perkin-Elmer). In the presence of test chemicals, the binding affinity was calculated as a percentage of the binding in the presence of carrier only (DMSO).

GST-E6/His-caspase 8 = molecular target: T1, GST-E6/His-caspase 8 (Human papillomavirus type 16, UniProt P03126); assay: AlphaScreen bead-based binding assay GST-E6/His-caspase 8; set-up: species or system HPV 16; conditions: for EC50 for GST-E6/His-caspase 8 interaction: bead-based assay, 1.4 μM–3.2 mM tested
T1 construct: made in house
T1 sequence (P03126 whole entry): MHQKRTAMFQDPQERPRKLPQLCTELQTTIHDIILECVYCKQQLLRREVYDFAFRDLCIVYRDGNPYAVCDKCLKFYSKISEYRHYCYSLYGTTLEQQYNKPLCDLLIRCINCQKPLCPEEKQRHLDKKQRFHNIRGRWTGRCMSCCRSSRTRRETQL
Method: as §1
(§3) The construction of the pGEX-E6, pTriEx-E6AP, and pTriEx-Caspase-8 DED plasmids has been reported.[33] Expression and purification of GSTE6, His-E6AP, and His-Caspase-8 DED were carried out as previously described.[33], [37] GST-tagged and His-tagged proteins were diluted into GST dilution buffer (PBS pH 8.0, 5% glycerol, 2 mM DTT) and His dilution buffer (20 mM Hepes pH 7.4, 150 mM NaCl, 2 mMKCl, 5% glycerol, 2 mM DTT), respectively. Protein concentration was measured using Coomassie Plus – The Better Bradford Assay Reagent (Thermo Scientific, Waltham, MA, USA). Purity of the isolated proteins was estimated following separation by sodium dodecyl sulfate-polyacrylamide gel electrophoresis (SDS-PAGE) and Coomassie staining.
as §2

GST-E6/His-E6AP = molecular target: T2, GST-E6/His-E6AP (Human papillomavirus type 16, UniProt P03126); assay: AlphaScreen bead-based binding assay GST-E6/His-E6AP; set-up: species or system HPV 16; conditions: for EC50 for GST-E6/His-E6AP interaction: bead-based assay, 1.4 μM–3.2 mM tested
T2 construct: made in house
T2 sequence (P03126 whole entry): as above
Method: as §1, §3, §2

SiHa cells = assay: TRAIL-induced apoptosis in SiHa cells (MTT); format: cell-based, human; conditions: SiHa cells, compound 4 h prior to TRAIL 100 ng/ml + cycloheximide 5 μg/ml, overnight, MTT
Method: Figure 3 (a) HPV^+ SiHa cells are resistant to TRAIL-induced apoptosis as compared with the human osteosarcoma cell line U2OS. Cells (2 × 10^4 cells per well) were seeded into a 96-well plate, allowed to incubate overnight, and then treated with the indicated concentration of TRAIL in the presence of cycloheximide (5 μg/ml). The viability of cells was measured after overnight incubation using the MTT assay; the viability of cells untreated with TRAIL was set at 100% for each group. (b) The indicated concentrations of three small molecules were added to SiHa cells, and an MTT assay was preformed after overnight incubation. The viability of cells untreated with small molecules was set as 100%. (c) The indicated concentrations of myricetin or spinacine were added 4 h prior to TRAIL (100 ng/ml) in the presence of cycloheximide (5 μg/ml) and incubated at 37 °C overnight. The viability of cells untreated with small molecules was set at 100%. (d and e) SiHa cells (2 × 10^4 cells per well) were seeded into a 96-well plate and allowed to incubate overnight. In all, 100 μM of myricetin and 50 μM of spinacine were added 4 h prior to either (d) doxorubicin or (e) cisplatin. Cell viability was measured after overnight incubation using the MTT assay, and the viability of cells untreated with either myricetin or spinacine was set at 100%. Experiments were performed in triplicate, and error bars indicate the S.D.
Figure 5 Myricetin and spinacine (5) can re-sensitize HPV^+, but not HPV^−, cells to treatment with TRAIL. SiHa (2 × 10^4 cells per well) and C33A cells (1 × 10^4 cells per well) were seeded into a 96-well plate and allowed to incubate overnight, and then cells were pretreated in the presence or absence of (a) myricetin (100 μM) or (b) spinacine (50 μM) for 4 h. The indicated concentration of TRAIL along with cycloheximide (5 μg/ml) was added, and the cells were allowed to incubate overnight. Cell viability was measured by MTT assay, and the viability of cells untreated with TRAIL was set at 100%. Experiments were performed in triplicate, and error bars indicate the S.D.
The extracellular domain of human TRAIL was cloned into a pTriEx expression plasmid containing N-terminal Hisx6 tag. His-TRAIL was expressed in the E. coli BL-21 pLys strain and purified as previously described. Doxorubicin and cisplatin were purchased from Sigma. His-TRAIL, doxorubicin, and cisplatin were diluted in PBS to the desired concentration before using. To measure cell survival following treatment with TRAIL, cisplatin and doxorubicin, SiHa (2 × 10^4/well), C33A (1 × 10^4/well), and HNSCC cells (2 × 10^4/well) were seeded into 96-well plates and allowed to adhere overnight. Small molecules at the desired concentration were added and incubated at 37 °C for 4 h. As indicated, TRAIL, cisplatin, or doxorubicin was then added. The TRAIL treatment group contained cycloheximide (5 μg/ml) to inhibit de novo protein synthesis, and the cells were incubated for 16 h prior to measuring cell viability by the MTT assay preformed as described previously.[38] All experiments were repeated at least three times (three biological replicates, carried out on different days), with each experimental group measured in triplicate within each of these individual experiments. Data presented are from a representative experiment.

[2] = counter-screen, bead-based assay, 1.4 μM–3.2 mM tested

Chain of GST-caspase 8/His-caspase 8 (Q14790 1-184): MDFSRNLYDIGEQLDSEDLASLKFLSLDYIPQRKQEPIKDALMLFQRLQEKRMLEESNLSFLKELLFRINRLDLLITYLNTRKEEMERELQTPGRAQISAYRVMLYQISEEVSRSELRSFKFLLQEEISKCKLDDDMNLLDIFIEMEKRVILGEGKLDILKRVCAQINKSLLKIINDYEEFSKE

SMILES: NCCCn1ccc2ccccc21 [compound 1, 3-(1H-indol-1-yl)propan-1-amine methanesulfonate]
- EC50 ([1]; counter-screen, bead-based assay, 1.4 μM–3.2 mM tested, read-out: EC50 for GST-caspase 8/His-caspase 8 interaction): 830 µM
- EC50 (GST-E6/His-caspase 8): 630 µM
- EC50 (GST-E6/His-E6AP): 670 µM

SMILES: c1ccc2[nH]cnc2c1 [compound 2, benzimidazole]
- EC50 [1]: 1050 µM
- EC50 (GST-E6/His-caspase 8): 1040 µM
- EC50 (GST-E6/His-E6AP): 1480 µM

SMILES: OCn1cnc2ccccc21 [compound 3, 1H-benzimidazole-1-methanol]
- EC50 for TRAIL-induced apoptosis (SiHa cells): No sensitization
- EC50 for GST-caspase 8/His-caspase 8 interaction [1, 2]: No Inhibition
- EC50 for GST-E6/His-caspase 8 interaction (GST-E6/His-caspase 8): No Inhibition
- EC50 for GST-E6/His-E6AP interaction (GST-E6/His-E6AP): No Inhibition

SMILES: COCc1nc2ccccc2[nH]1 [compound 4, 2-(methoxymethyl)-1H-benzimidazole]
- EC50 for GST-caspase 8/His-caspase 8 interaction [1, 2]: No inhibition
- EC50 for GST-E6/His-caspase 8 interaction (GST-E6/His-caspase 8): No inhibition
- EC50 for GST-E6/His-E6AP interaction (GST-E6/His-E6AP): No inhibition

— publication PMC5154303, “Flavonol and imidazole derivatives block HPV16 E6 activities and reactivate apoptotic pathways in HPV^+ cells” (Cell Death & Disease, 2016)
